From US20240317801A1, “PEPTIDOMIMETIC MATRIPTASE 2 INHIBITORS AND USES THEREOF” (Disc Medicine, Inc., priority 2020, published 2024)

target: T1, Human Recombinant Matriptase 2 (Homo sapiens, UniProt Q8IU80); assay: Matriptase 2 fluorescence-based inhibition assay (Boc-Gln-Ala-Arg-AMC substrate); assay type: biochemical; conditions: Ki derived from measured IC50 using Cheng-Prusoff equation; 30 min preincubation, 100 μM substrate, 25° C., pH 7.5; read-out: Mat-2 Ki
T1 construct: purchased Enzo Life Sciences ALX-201-752-1
T1 sequence (Q8IU80 1-811): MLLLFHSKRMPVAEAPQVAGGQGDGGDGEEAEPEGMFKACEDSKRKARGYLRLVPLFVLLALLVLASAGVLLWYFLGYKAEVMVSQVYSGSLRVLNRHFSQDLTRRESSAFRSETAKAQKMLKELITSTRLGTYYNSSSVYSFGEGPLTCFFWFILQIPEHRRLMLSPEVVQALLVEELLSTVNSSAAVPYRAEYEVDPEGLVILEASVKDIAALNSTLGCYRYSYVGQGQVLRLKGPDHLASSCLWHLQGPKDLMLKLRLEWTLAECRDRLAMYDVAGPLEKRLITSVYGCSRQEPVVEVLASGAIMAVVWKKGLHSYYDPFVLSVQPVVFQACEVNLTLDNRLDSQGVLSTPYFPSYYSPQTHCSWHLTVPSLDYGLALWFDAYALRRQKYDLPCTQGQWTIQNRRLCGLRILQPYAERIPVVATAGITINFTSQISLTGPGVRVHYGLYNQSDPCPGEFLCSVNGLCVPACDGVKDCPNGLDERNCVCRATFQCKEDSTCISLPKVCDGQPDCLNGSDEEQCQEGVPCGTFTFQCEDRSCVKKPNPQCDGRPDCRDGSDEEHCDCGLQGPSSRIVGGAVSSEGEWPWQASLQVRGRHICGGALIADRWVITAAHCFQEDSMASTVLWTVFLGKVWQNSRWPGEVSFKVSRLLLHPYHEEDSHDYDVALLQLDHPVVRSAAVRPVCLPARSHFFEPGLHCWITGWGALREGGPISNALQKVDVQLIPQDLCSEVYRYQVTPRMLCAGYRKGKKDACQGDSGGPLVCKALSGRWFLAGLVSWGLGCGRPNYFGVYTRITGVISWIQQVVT
Description: Test compounds were evaluated for their potential to inhibit Human Recombinant Matriptase 2 (in-house and commercial protein from Enzo Life Sciences—cat log—ALX-201-752-1) using fluorescence-based assay. The concentration of Recombinant Matriptase 2 and the substrate used in the assay were: 7 nM (commercial) and 15 nM (In-house Matriptase 2) and 100 μM (Boc-Gln-Ala-Arg-7-amido-4-methyl coumarin hydrobromide—Cat log: B4153-Sigma and I-1550 from Bachem) respectively. The assay buffer used comprised 50 mM TRIS pH 7.5, 150 mM NaCl, 0.01% gelatin (G1393 Sigma). The assay was performed by using 384 well black flat bottom plate from Grenier (Cat log: 781076) at 25° C. The enzyme and the test compound were preincubated for 30 mins, and the plate was read at wavelength Ex: 360/Em:480 nm60 mins after substrate addition. The final assay volume of was 20 μl. Stock solution of compounds were initially prepared in DMSO, which were appropriately diluted for screening to determine IC50 determination (final DMSO conc in the assay was 1%). All the measurements were carried out using the Spectramax M5, Molecular devices. The test compounds were screened at 1 and 10 μM concentrations and IC50 was determined for the interested compounds.
Ki is the binding affinity of an inhibitor. Mat-2 Ki as described herein is the binding affinity of an inhibitor such as a compound as described and provided herein to Mat-2. Mat-2 Ki values are derived from the measured IC50. To determine IC50 values, dose-response curves were generated by plotting percentage inhibition as a function of inhibitor concentration and the data was fitted to a sigmoidal non-linear regression equation (variable slope) using Graph Pad Prism software V7. Mat-2 Ki values as described herein were derived from the IC50 using the Cheng-Prusoff equation, which is understood and appreciated by one the skill in the art. The Mat-2 Ki values of tested compounds as described herein are shown in Table A. Accordingly, the compounds can be used to inhibit matriptase 2 and treat diseases and conditions associated with matriptase 2, such as those described herein.

Ki [nM] | SMILES
100 to 1000 | C[C@@H](O)[C@H](NC(=O)[C@H](CCc1ccccc1)NC(=O)CCc1ccccc1)C(=O)N[C@@H](CC1CCN(C(=N)N)CC1)C(=O)C(=O)NC1CC1 [(3S)-4-(1-carbamimidoylpiperidin-4-yl)-N-cyclopropyl-2-oxidanylidene-3-[[(2S,3R)-3-oxidanyl-2-[[(2S)-4-phenyl-2-(3-phenylpropanoylamino)butanoyl]amino]butanoyl]amino]butanamide]
≤ 100 | C[C@@H](O)[C@H](NC(=O)[C@H](CCc1ccccc1)NC(=O)CCc1ccccc1)C(=O)N[C@@H](CCCNC(=N)N)C(=O)C(=O)NC1(C)CC1 [(S)-6-guanidino-3-((2S,3R)-3-hydroxy-2-((S)-4-phenyl-2-(3-phenylpropanamido)butanamido)butanamido)-N-(1-methylcyclopropyl)-2-oxohexanamide]
≤ 100 | C[C@@H](O)[C@H](NC(=O)[C@H](CCc1ccccc1)NC(=O)CCc1ccccc1)C(=O)N[C@@H](CCCNC(=N)N)C(=O)C(=O)NC1CC1 [(S)—N-cyclopropyl-6-guanidino-3-((2S,3R)-3-hydroxy-2-((S)-4-phenyl-2-(3-phenylpropanamido)butanamido)butanamido)-2-oxohexanamide]
